Assay results reported in patent US20160318987A1 (MEDIMMUNE LIMITED, priority 2013, published 2016).
Where a SMILES comes first, the peptide text is derived from it. [ ]: non-standard residue; d: D form. Aib = CC(C)(N)C(=O)O

Key:
Assay type in all cases: cell-based
Conditions in all cases: n = 2
[1] = target: T1, hGLP-1R (Homo sapiens, UniProt P43220); assay: cAMP functional assay, cells expressing human GLP-1 receptor (primary assay)
T1 construct: expressed in transfected cells

[2] = target: T2, hGIP-R (Homo sapiens, UniProt P48546); assay: cAMP functional assay, cells expressing human GIP receptor (primary assay)
T2 construct: expressed in transfected cells
T2 sequence (P48546 22-466): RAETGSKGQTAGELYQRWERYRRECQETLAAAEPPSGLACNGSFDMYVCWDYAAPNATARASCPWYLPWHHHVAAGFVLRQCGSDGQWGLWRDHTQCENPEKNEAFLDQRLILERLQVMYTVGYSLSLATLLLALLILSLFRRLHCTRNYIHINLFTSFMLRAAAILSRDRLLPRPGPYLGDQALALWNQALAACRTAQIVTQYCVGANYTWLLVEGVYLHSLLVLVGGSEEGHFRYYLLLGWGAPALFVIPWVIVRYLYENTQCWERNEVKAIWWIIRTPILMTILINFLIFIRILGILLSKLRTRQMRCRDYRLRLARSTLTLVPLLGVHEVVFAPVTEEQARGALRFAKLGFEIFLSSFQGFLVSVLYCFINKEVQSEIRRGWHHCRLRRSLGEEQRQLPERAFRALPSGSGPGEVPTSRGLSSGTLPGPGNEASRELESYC

[3] = target: T3, hGluc-R (Homo sapiens, UniProt P47871); assay: cAMP functional assay, cells expressing human glucagon receptor (primary assay)
T3 construct: expressed in transfected cells
T3 sequence (P47871 26-477): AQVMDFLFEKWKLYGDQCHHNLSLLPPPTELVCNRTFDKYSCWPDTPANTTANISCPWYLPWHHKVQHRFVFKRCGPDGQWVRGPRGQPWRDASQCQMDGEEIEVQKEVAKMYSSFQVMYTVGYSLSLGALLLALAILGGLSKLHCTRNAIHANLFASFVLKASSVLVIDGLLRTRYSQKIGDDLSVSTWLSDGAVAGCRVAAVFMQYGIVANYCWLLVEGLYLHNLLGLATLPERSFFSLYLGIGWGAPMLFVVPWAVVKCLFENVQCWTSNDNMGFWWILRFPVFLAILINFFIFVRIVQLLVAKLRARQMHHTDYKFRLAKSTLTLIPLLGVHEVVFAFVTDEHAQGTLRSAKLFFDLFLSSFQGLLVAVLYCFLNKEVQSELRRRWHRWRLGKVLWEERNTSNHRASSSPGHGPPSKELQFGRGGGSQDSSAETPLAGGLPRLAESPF
Description: The biological activities/receptor potencies of the synthetic GLP-1 peptides described herein are suitably tested for biological activity, e.g., stimulation of one or more cellular receptor responses. Stable cell lines expressing human, mouse, rat, or dog GLP-1 receptor (GLP-1R), glucagon receptor (GCGR) or glucose-dependent insulinotropic peptide (gastric inhibitory polypeptide) receptor (GIPR) are generated in HEK293 cells or CHO cells by standard methods.
cAMP assays were performed using “assay buffer”: Assay Buffer: 0.1% BSA (Sigma #A3059) in HBSS (Sigma #H8264) with 25 mM HEPES, pH 7.4 and containing 0.5 mM IBMX (Sigma #17018).
Low protein binding 384-well plates (Greiner #781280) are used to perform eleven 1 in 5 serial dilutions of test samples which are made in assay buffer. All sample dilutions are made in duplicate.
A frozen cryo-vial of cells expressing the receptor of interest is thawed rapidly in a water-bath, transferred to pre-warmed assay buffer and spun at 240× g for 5 minutes. Cells are re-suspended in assay buffer at a batch-dependent optimized concentration (e.g. hGCGR cells at 2×10^5 cells/ml, hGLP-1R and hGIPR cells at 1×10^5 cells /ml).
From the dilution plate, a 5 μL replica is stamped onto a black shallow-well u-bottom 384-well plate (Corning #3676). To this, 5 μL cell suspension is added and the plates incubated at room temperature for 30 minutes.
cAMP levels are measured using a commercially available cAMP dynamic 2 HTRF kit (Cisbio, Cat #62AM4PEJ), following the two step protocol as per manufacturer's recommendations. In brief; anti-cAMP cryptate (donor fluorophore) and cAMP-d2 (acceptor fluorophore) are made up separately by diluting each 1/20 in conjugate & lysis buffer provided in the kit. 5 μL anti-cAMP cryptate is added to all wells of the assay plate, and 5 μL cAMP-d2 is added to all wells except non-specific binding (NSB) wells, to which conjugate and lysis buffer are added. Plates are incubated at room temperature for one hour and then read on an Envision (Perkin Elmer) using excitation wavelength of 320 nm and emission wavelengths of 620 nm & 665 nm. EC50 values of the synthetic peptides determined in cAMP assays are then determined.

T1 sequence (P43220 24-463): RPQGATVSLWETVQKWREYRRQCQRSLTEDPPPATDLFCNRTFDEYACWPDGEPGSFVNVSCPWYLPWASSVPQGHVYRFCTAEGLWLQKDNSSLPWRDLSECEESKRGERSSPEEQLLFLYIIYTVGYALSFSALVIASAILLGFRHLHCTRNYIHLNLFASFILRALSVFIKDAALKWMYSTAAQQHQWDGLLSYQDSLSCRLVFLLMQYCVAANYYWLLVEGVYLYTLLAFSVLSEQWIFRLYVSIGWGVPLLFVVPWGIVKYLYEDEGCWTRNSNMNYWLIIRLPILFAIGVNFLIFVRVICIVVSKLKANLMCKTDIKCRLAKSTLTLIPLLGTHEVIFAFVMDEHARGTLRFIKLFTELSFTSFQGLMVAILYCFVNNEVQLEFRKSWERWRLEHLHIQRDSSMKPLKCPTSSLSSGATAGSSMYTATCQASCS

| EC50 [1] | EC50 [2] | EC50 [3] | Compound |
| --- | --- | --- | --- |
| 2.58 nM | 147 nM | 147 nM | CC[C@H](C)[C@H](NC(=O)C(C)(C)NC(=O)[C@H](CCC(=O)O)NC(=O)[C@H](CCCCN)NC(=O)[C@H](C)NC(=O)[C@H](C)NC(=O)[C@H](CCC(N)=O)NC(=O)CNC(=O)[C@H](CCC(=O)O)NC(=O)[C@H](CC(C)C)NC(=O)[C@H](Cc1ccc(O)cc1)NC(=O)[C@H](CO)NC(=O)[C@H](CO)NC(=O)[C@@H](NC(=O)[C@H](CC(=O)O)NC(=O)[C@H](CO)NC(=O)[C@@H](NC(=O)[C@H](Cc1ccccc1)NC(=O)[C@@H](NC(=O)CNC(=O)[C@H](CCC(=O)O)NC(=O)C(C)(C)NC(=O)[C@@H](N)Cc1c[nH]cn1)[C@@H](C)O)[C@@H](C)O)C(C)C)C(=O)N[C@@H](C)C(=O)N[C@@H](Cc1c[nH]c2ccccc12)C(=O)N[C@@H](CC(C)C)C(=O)N[C@H](C(=O)N[C@@H](CCCCN)C(=O)NCC(=O)N[C@@H](CCCNC(=N)N)C(N)=O)C(C)C [SEQ ID NO: 12, H-(Aib)^2-EGT^5 FTSDV^10 SSYLE^15 GQAAK^20 E-(Aib)^22IAW^25 LVKGR^30] (H-H[Aib]EGTFTSDVSSYLEGQAAKE[Aib]IAWLVKGR-NH2) |
| 0.026 nM | 164 nM | 164 nM | CC[C@H](C)[C@H](NC(=O)[C@H](Cc1ccccc1)NC(=O)[C@H](CCC(=O)O)NC(=O)[C@H](CCCCN)NC(=O)[C@H](C)NC(=O)[C@H](C)NC(=O)[C@H](CCC(N)=O)NC(=O)CNC(=O)[C@H](CCC(=O)O)NC(=O)[C@H](CC(C)C)NC(=O)[C@H](Cc1ccc(O)cc1)NC(=O)[C@H](CO)NC(=O)[C@H](CO)NC(=O)[C@@H](NC(=O)[C@H](CC(=O)O)NC(=O)[C@H](CO)NC(=O)[C@@H](NC(=O)[C@H](Cc1ccccc1)NC(=O)[C@@H](NC(=O)CNC(=O)[C@H](CCC(=O)O)NC(=O)C(C)(C)NC(=O)[C@@H](N)Cc1c[nH]cn1)[C@@H](C)O)[C@@H](C)O)C(C)C)C(=O)N[C@@H](C)C(=O)N[C@@](C)(Cc1c[nH]c2ccccc12)C(=O)N[C@@H](CC(C)C)C(=O)N[C@H](C(=O)N[C@@H](CCCCN)C(=O)NCC(=O)N[C@@H](CCCNC(=N)N)C(N)=O)C(C)C [SEQ ID NO: 13, H-(Aib)^2-EGT^5 FTSDV^10 SSYLE^15 GQAAK^20 EFIA-(α-MeW)^25 LVKGR^30] |
| 0.0196 nM | 170 nM | 170 nM | CC[C@H](C)[C@H](NC(=O)[C@H](Cc1ccccc1)NC(=O)[C@H](CCC(=O)O)NC(=O)[C@H](CCCCN)NC(=O)[C@H](C)NC(=O)[C@H](C)NC(=O)[C@H](CCC(N)=O)NC(=O)CNC(=O)[C@H](CCC(=O)O)NC(=O)[C@H](CC(C)C)NC(=O)[C@H](Cc1ccc(O)cc1)NC(=O)[C@H](CO)NC(=O)[C@H](CO)NC(=O)[C@@H](NC(=O)[C@H](CC(=O)O)NC(=O)[C@H](CO)NC(=O)[C@@H](NC(=O)[C@H](Cc1ccccc1)NC(=O)[C@@H](NC(=O)CNC(=O)[C@H](CCC(=O)O)NC(=O)C(C)(C)NC(=O)[C@@H](N)Cc1c[nH]cn1)[C@@H](C)O)[C@@H](C)O)C(C)C)C(=O)N[C@@H](C)C(=O)N[C@@](C)(Cc1ccccc1)C(=O)N[C@@H](CC(C)C)C(=O)N[C@H](C(=O)N[C@@H](CCCCN)C(=O)NCC(=O)N[C@@H](CCCNC(=N)N)C(N)=O)C(C)C [SEQ ID NO: 14, H-(Aib)^2-EGT^5 FTSDV^10 SSYLE^15 GQAAK^20 EFIA-(α-MeF)^25 LVKGR^30] |
| 0.0465 nM | 177 nM | 177 nM | CC[C@H](C)[C@H](NC(=O)[C@H](Cc1ccccc1)NC(=O)[C@H](CCC(=O)O)NC(=O)[C@H](CCCCN)NC(=O)[C@H](C)NC(=O)[C@H](C)NC(=O)[C@H](CCC(N)=O)NC(=O)CNC(=O)[C@H](CCC(=O)O)NC(=O)[C@H](CC(C)C)NC(=O)[C@H](Cc1ccc(O)cc1)NC(=O)[C@H](CO)NC(=O)[C@H](CO)NC(=O)[C@@H](NC(=O)[C@H](CC(=O)O)NC(=O)[C@H](CO)NC(=O)[C@@H](NC(=O)[C@H](Cc1ccccc1)NC(=O)[C@@H](NC(=O)CNC(=O)[C@H](CCC(=O)O)NC(=O)C(C)(C)NC(=O)[C@@H](N)Cc1c[nH]cn1)[C@@H](C)O)[C@@H](C)O)C(C)C)C(=O)N[C@@H](C)C(=O)NC(C)(C)C(=O)N[C@@H](CC(C)C)C(=O)N[C@H](C(=O)N[C@@H](CCCCN)C(=O)NCC(=O)N[C@@H](CCCNC(=N)N)C(N)=O)C(C)C [SEQ ID NO: 15, H-(Aib)^2-EGT^5 FTSDV^10 SSYLE^15 GQAAK^20 EFIA-(Aib)^25 LVKGR^30] |
| 0.0167 nM | 110 nM | 110 nM | CC[C@H](C)[C@H](NC(=O)[C@H](Cc1ccccc1)NC(=O)[C@H](CCC(=O)O)NC(=O)[C@](C)(CCCCN)NC(=O)[C@H](C)NC(=O)[C@H](C)NC(=O)[C@H](CCC(N)=O)NC(=O)CNC(=O)[C@H](CCC(=O)O)NC(=O)[C@H](CC(C)C)NC(=O)[C@H](Cc1ccc(O)cc1)NC(=O)[C@H](CO)NC(=O)[C@H](CO)NC(=O)[C@@H](NC(=O)[C@H](CC(=O)O)NC(=O)[C@H](CO)NC(=O)[C@@H](NC(=O)[C@H](Cc1ccccc1)NC(=O)[C@@H](NC(=O)CNC(=O)[C@H](CCC(=O)O)NC(=O)C(C)(C)NC(=O)[C@@H](N)Cc1c[nH]cn1)[C@@H](C)O)[C@@H](C)O)C(C)C)C(=O)N[C@@H](C)C(=O)N[C@@H](Cc1c[nH]c2ccccc12)C(=O)N[C@@H](CC(C)C)C(=O)N[C@H](C(=O)N[C@@H](CCCCN)C(=O)NCC(=O)N[C@@H](CCCNC(=N)N)C(N)=O)C(C)C [SEQ ID NO: 20, H-(Aib)^2-EGT^5 FTSDV^10 SSYLE^15 GQAA-(α-MeK)^20 EFIAW^25 LVKGR^30] |
| 0.02 nM | 76.5 nM | 76.5 nM | CC[C@H](C)[C@H](NC(=O)[C@H](Cc1ccccc1)NC(=O)[C@H](CCC(=O)O)NC(=O)C(C)(C)NC(=O)[C@H](C)NC(=O)[C@H](C)NC(=O)[C@H](CCC(N)=O)NC(=O)CNC(=O)[C@H](CCC(=O)O)NC(=O)[C@H](CC(C)C)NC(=O)[C@H](Cc1ccc(O)cc1)NC(=O)[C@H](CO)NC(=O)[C@H](CO)NC(=O)[C@@H](NC(=O)[C@H](CC(=O)O)NC(=O)[C@H](CO)NC(=O)[C@@H](NC(=O)[C@H](Cc1ccccc1)NC(=O)[C@@H](NC(=O)CNC(=O)[C@H](CCC(=O)O)NC(=O)C(C)(C)NC(=O)[C@@H](N)Cc1c[nH]cn1)[C@@H](C)O)[C@@H](C)O)C(C)C)C(=O)N[C@@H](C)C(=O)N[C@@H](Cc1c[nH]c2ccccc12)C(=O)N[C@@H](CC(C)C)C(=O)N[C@H](C(=O)N[C@@H](CCCCN)C(=O)NCC(=O)N[C@@H](CCCNC(=N)N)C(N)=O)C(C)C [SEQ ID NO: 21, H-(Aib)^2-EGT^5 FTSDV^10 SSYLE^15 GQAA-(Aib)^26 EFIAW^25 LVKGR^30] |
| 0.019 nM | 91.4 nM | 91.4 nM | CC[C@H](C)[C@H](NC(=O)[C@H](Cc1ccccc1)NC(=O)[C@H](CCC(=O)O)NC(=O)[C@H](CCCCN)NC(=O)[C@H](C)NC(=O)[C@H](C)NC(=O)[C@H](CCC(N)=O)NC(=O)CNC(=O)[C@H](CCC(=O)O)NC(=O)[C@H](CC(C)C)NC(=O)[C@H](Cc1ccc(O)cc1)NC(=O)[C@H](CO)NC(=O)[C@H](CO)NC(=O)[C@@H](NC(=O)[C@H](CC(=O)O)NC(=O)[C@H](CO)NC(=O)[C@@H](NC(=O)[C@H](Cc1ccccc1)NC(=O)[C@@H](NC(=O)CNC(=O)[C@H](CCC(=O)O)NC(=O)C(C)(C)NC(=O)[C@@H](N)Cc1c[nH]cn1)[C@@H](C)O)[C@@H](C)O)C(C)C)C(=O)N[C@@H](C)C(=O)N[C@@H](Cc1c[nH]c2ccccc12)C(=O)N[C@@H](CC(C)C)C(=O)N[C@H](C(=O)N[C@@](C)(CCCCN)C(=O)NCC(=O)N[C@@H](CCCNC(=N)N)C(N)=O)C(C)C [SEQ ID NO: 22, H-(Aib)^2-EGT^5 FTSDV^10 SSYLE^15 GQAAK^20 EFIAW^25 LV-(α-MeK)^28-GR^30] |
